Source: PMC6222706, “Evaluation of the Antioxidant and Neuroprotectant Activities of New Asymmetrical 1,3-Diketones” (Molecules : A Journal of Synthetic Chemistry and Natural …, 2018)

What was measured:
[1] = system: SH-SY5Y cells; test: SH-SY5Y neuroprotection assay against H2O2 (MTT); type: cell-based, human; details: compound 5-50 µM for 24 h, then 200 µM H2O2 for 24 h
Procedure: For neuroprotection experiments, SH-SY5Y cells were treated with test compound at different concentrations (5, 10, 20, 30, 40, and 50 µM) for 24 h. After the incubation period, cells were exposed to H2O2 200 µM for 24 h. At the end of the treatment, cell viability was measure with MTT.
Compound neuroprotection under H2O2-induced oxidative stress was assessed by MTT assay. Briefly, SH-SY5Y were seeded into 96-well plates at a density of 3 × 10^3 cells/well and grown in the incubator for 24 h. Cells were pretreated for 24 h with different compound concentrations (5, 10, 20, 30, 40, 50 µM). After the treatment period, cells were exposed to 200 µM H2O2 for 24 h. Cell viability was measured with MTT following the same procedure described above. Cell viability was expressed as the percentage of the control value (cells without treatment with H2O2).

[2] = system: SH-SY5Y cells; test: Mitochondrial membrane potential by flow cytometry (JC-1) in SH-SY5Y cells under H2O2; type: cell-based, human; details: 7b for 24 h, then 400 µM H2O2 for 4 h, JC-1 flow cytometry
Procedure: To confirm this MMP recovery results, flow cytometry experiments were carried out with compound 7b and SH-SY5Y cells. Cells were treated with 7b for 24 h and then were exposed to 400 µM H2O2 for 4 h. JC-1 was used as fluorescence indicator of MMP state. In flow cytometry studies of MMP, JC-1 is excited at 488 nm wavelength. Both JC-1 aggregates and monomers show green fluorescence (peak emission at 527 nm) measured in the FL1 channel. […] Thus, healthy non-apoptotic cells are detected in both FL1 and FL2 channels, while cells with disrupted mitochondrial function show fluorescence in FL1 channel but reduced FL2 intensity. […] From these flow cytometry experiments, we can confirm that after compound 7b treatment there is a significant MMP recovery in SH-SY5Y cells under oxidative stress pressure.
For MMP flow cytometry studies, 10^5 SH-SY5Y cells were seeded in 6 well plates. After 24 h, cells were treated with test compound and incubated for other 24 h. After the treatment period, cells were exposed to H2O2 for 4 h. Then, cells were washed twice with Hanks buffer and stained with 5 µM JC-1 in culture media in dark, in a CO2 incubator at 37 °C for 20 min. After the staining period, cells were washed three times with Hanks buffer, collected and resuspended in 500 µL culture media. Data were obtained and analyzed using an Accuri C6 flow cytometer (BD Biosciences, Ann Arbour, MI, USA). […]

| SMILES | Cell viability after H2O2 (neuroprotection) [1] | FLA-1/FLA-2 ratio [2] |
| --- | --- | --- |
| O=C(/C=C(O)/C=C/c1ccc(O)c(F)c1F)C(F)(F)F [Compound 7b, (3Z,5E)-6-(2,3-Difluoro-4-hydroxyphenyl)-1,1,1-trifluoro-4-hydroxyhexa-3,5-dien-2-one] | significantly improved | significant reduction of that ratio |
| O=C(/C=C(O)/C=C/c1cc(F)c(O)cc1F)C(F)(F)F [Compound 6b, (3Z,5E)-6-(2,5-difluoro-4-hydroxyphenyl)-1,1,1-trifluoro-4-hydroxyhexa-3,5-dien-2-one] | significantly improved |  |
